For this assay, the target named is T1, CycA (Escherichia coli, UniProt P0AAE0).
T1 construct: full-length native 470 aa inner-membrane permease, chromosomal cycA overexpressed from PL promoter (strain M1, MG1655 cat-PL-cycA), whole cells
T1 sequence (P0AAE0 1-470): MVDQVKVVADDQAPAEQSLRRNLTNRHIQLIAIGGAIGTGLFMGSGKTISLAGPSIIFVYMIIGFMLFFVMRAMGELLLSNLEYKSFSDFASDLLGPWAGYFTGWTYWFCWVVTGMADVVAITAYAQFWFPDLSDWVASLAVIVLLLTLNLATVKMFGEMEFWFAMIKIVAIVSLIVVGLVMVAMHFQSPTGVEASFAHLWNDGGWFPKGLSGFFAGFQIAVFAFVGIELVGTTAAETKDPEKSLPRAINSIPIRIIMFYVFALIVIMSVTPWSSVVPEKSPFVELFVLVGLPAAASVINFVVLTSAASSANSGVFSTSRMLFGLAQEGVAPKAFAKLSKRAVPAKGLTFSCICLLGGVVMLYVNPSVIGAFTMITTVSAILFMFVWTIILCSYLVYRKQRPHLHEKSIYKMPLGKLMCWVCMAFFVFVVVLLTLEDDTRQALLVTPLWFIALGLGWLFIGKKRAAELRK
In words: amino acid uptake (extracellular depletion), cycA-overexpressing versus wild-type cells. Conditions: 50 mM, N-free M9 medium, 37 °C, 6 h; other native importers intact. The class given is cell-based.

Experimental findings from PMC8948829, “The Escherichia coli Amino Acid Uptake Protein CycA: Regulation of Its Synthesis and Practical Application in L-Isoleucine Production” (Microorganisms, 2022) are described below.

SMILES strings stand for the structures.

In the case of `CC[C@H](N)C(=O)O` [AABA], the uptake rate result was “the uptake rate was higher in the case of the M1 strain, especially for Ala and AABA”.

For `C[C@H](N)C(=O)O` [Ala], the uptake rate entry is “the uptake rate was higher in the case of the M1 strain, especially for Ala and AABA”.
